One assay deals with E. faecium MUT_132. Briefly: Effect of SDS on bacterial growth (Bioscreen). The class given is cell-based, Enterococcus faecium. How it is done:
(§1) The sensitivity of the mutants to AurA53- and EntL50-like bacteriocins, nisin, RAM, GRA, carbenicillin, and chlortetracycline was determined using microtiter plates with serial 2-fold dilutions of the antimicrobials, as described previously ([41]). The lowest concentration of the agent reducing visible bacterial growth by at least 50% was taken as the MIC (MIC50) value. The sensitivity to other antibiotics was determined using agar plates with antibiotic strips as described previously ([12]). The antibiotic concentration at the point where the inhibition zone intersected the strip was taken as the MIC value. The antibiotic susceptibilities of E. faecium LMGT 2783, MUT_130 to MUT_132, MUT_136 to MUT_139, and MUT_140 and MUT_141 were tested in ISO-BHI medium (Oxoid) supplemented with 5 μg/mL Em when appropriate, while those of E. faecium MUT_142 to MUT_149 were tested in CM17 medium supplemented with 5 μg/mL Em. To study the effects of NaCl and sodium dodecyl sulfate (SDS) on bacterial growth, saturated overnight cultures of E. faecium were used for inoculation at a dilution of 1:100 in BHI medium with serial dilutions of these compounds at concentrations of 0.5 to 10% (wt/vol) and 3.0 × 10^−2 to 2.5 × 10^−3% (wt/vol), respectively. […]

Assay [1] concerns E. faecium LMGT 2783 and its spontaneous mutants. Briefly: Effect of NaCl and SDS on bacterial growth (Bioscreen). It counts as cell-based, Enterococcus faecium. The note with it: WT LMGT 2783 and all mutants, BHI, 37°C, 24 h, inoculum 1:100, lowest concentration (wt/vol) with at least 50% growth inhibition, at least triplicate. On the procedure: as §1
Assay [2] has as its system E. faecium LMGT 2783 (WT). Briefly: microbe, parasite or virus in culture. How it is done: (§2) The sensitivity of the mutants to AurA53- and EntL50-like bacteriocins, nisin, RAM, GRA, carbenicillin, and chlortetracycline was determined using microtiter plates with serial 2-fold dilutions of the antimicrobials, as described previously ([41]). The lowest concentration of the agent reducing visible bacterial growth by at least 50% was taken as the MIC (MIC50) value. The sensitivity to other antibiotics was determined using agar plates with antibiotic strips as described previously ([12]). The antibiotic concentration at the point where the inhibition zone intersected the strip was taken as the MIC value. The antibiotic susceptibilities of E. faecium LMGT 2783, MUT_130 to MUT_132, MUT_136 to MUT_139, and MUT_140 and MUT_141 were tested in ISO-BHI medium (Oxoid) supplemented with 5 μg/mL Em when appropriate, while those of E. faecium MUT_142 to MUT_149 were tested in CM17 medium supplemented with 5 μg/mL Em. To study the effects of NaCl and sodium dodecyl sulfate (SDS) on bacterial growth, saturated overnight cultures of E. faecium were used for inoculation at a dilution of 1:100 in BHI medium with serial dilutions of these compounds at concentrations of 0.5 to 10% (wt/vol) and 3.0 × 10^−2 to 2.5 × 10^−3% (wt/vol), respectively. Bacterial cultures were incubated at 37°C without shaking for 24 h in a Bioscreen turbidometric automated analyzer (Bioscreen C, Growth Curves Ltd., Finland) in Honeycomb 100-well plates (Oy Growth Curves Ab Ltd.). […] The assays were made at least in triplicate.

Assay [3] deals with E. faecium MUT_146 (ΔliaFSR pGh:PptcB:liaSR). The conditions noted are these: antibiotic strips on agar, CM17 + 5 μg/mL Em, mean of three biological replicates. On the procedure: as §2
The subject of assay [4] is E. faecium MUT_144 (ΔliaFSR pGh:PptcB:liaS). The note with it: antibiotic strips on agar, CM17 + 5 μg/mL Em, mean of three biological replicates. On the procedure: as §2
Assay [5] has as its system E. faecium MUT_150 (ΔliaFSR ΔliaX pGh:PptcB:liaSR). The conditions noted are these: antibiotic strips on agar, CM17 + 5 μg/mL Em, mean of three biological replicates. On the procedure:
as §2

Assay [6] has as its system E. faecium MUT_145 (ΔliaFSR pGh:PptcB:liaR). The conditions noted are these: antibiotic strips on agar, CM17 + 5 μg/mL Em, mean of three biological replicates. How it is done: as §2
Assay [7] concerns E. faecium MUT_148 (ΔliaFSR ΔliaX pGh:PptcB:liaS). The conditions noted are these: antibiotic strips on agar, CM17 + 5 μg/mL Em, mean of three biological replicates. How it is done: as §2
Assay [8] relates to E. faecium MUT_149 (ΔliaFSR ΔliaX pGh:PptcB:liaR). The conditions noted are these: antibiotic strips on agar, CM17 + 5 μg/mL Em, mean of three biological replicates. On the procedure: as §2
Assay [9] has as its system E. faecium MUT_147 (ΔliaFSR ΔliaX pGhost9 empty vector). The note with it: antibiotic strips on agar, CM17 + 5 μg/mL Em, mean of three biological replicates. On the procedure: as §2
For assay [10], the system named is E. faecium MUT_143 (ΔliaFSR pGhost9 empty vector). The note with it: antibiotic strips on agar, CM17 + 5 μg/mL Em, mean of three biological replicates. How it is done:
as §2

Assay [11] deals with spontaneous E. faecium BHT-B-resistant mutants. How it is done:
Spontaneous resistant mutants were obtained by growing E. faecium LMGT 2783 in the presence of the bacteriocin as described previously ([41]). […] The stability of changes in BHT-B sensitivity was determined by continuously subculturing mutants in BHI broth without bacteriocin. Subcultures were formed at 24-h intervals, and sensitivity to BHT-B was validated after 1, 5, and 10 passages with simultaneous control of culture purity.
as §2

For assay [12], the system named is E. faecium MUT_140 (liaFSR deletion) and MUT_141 (liaFSR plus liaX deletion). Briefly: Susceptibility of deletion strains as a group (microtiter MIC50 or antibiotic strips). It counts as cell-based, Enterococcus faecium. The note with it: for Effect of the deletions on sensitivity (in words): both deletion strains MUT_140 and MUT_141 compared with WT. How it is done:
as §2

Setting [13] is: LMGT 2783, WT, agar plates with antibiotic strips, point where inhibition zone intersects strip, ISO-BHI medium, mean of three biological replicates.

≈ marks a conversion by molar mass, not a printed value.

With `CCCCCCCCCCCCOS(=O)(=O)[O-].[Na+]` [SDS, sodium dodecyl sulfate], the MIC50 amounted to 0.005% in the assay on E. faecium MUT_132 (MUT_132, BHI, 37°C, 24 h, Bioscreen C, lowest concentration (wt/vol) with at least 50% growth inhibition, at least triplicate) and 0.01% in assay [1]. In the assay on E. faecium MUT_132 (MUT_132 compared with the other strains), the “Fold increase in susceptibility” value is on record as 2 fold.
In assay [1], `[Cl-].[Na+]` [NaCl] registered an MIC50 of 6%.
On to bacitracin, for which the MIC worked out at 32 µg/mL in assay [2] (setting [13]); 16 µg/mL in [3]; 24 µg/mL in assay [4]; 24 µg/mL in assay [5]; 24 µg/mL in [6]; 16 µg/mL in assay [7]. In addition, the results for the MIC in assay [8], in assay [9] and in [10] were 16 µg/mL, 16 µg/mL and 24 µg/mL, respectively.
Regarding `CNC(C)C1CCC(N)C(OC2C(N)CC(N)C(OC3OCC(C)(O)C(NC)C3O)C2O)O1` (stereo not shown) [GEN, gentamicin], the MIC in [2] (Enterococcus faecium) came out at 4 µg/mL (≈ 8.38 µM). In assay [11] ({}), the “Fold-lower sensitivity than that of WT E. faecium” value is reported as 2-8 fold. The “Effect of the deletions on sensitivity (in words)” value in assay [12] is recorded as “unaffected”.
`CCCCCCCCCC(=O)N[C@@H](Cc1c[nH]c2ccccc12)C(=O)N[C@H](CC(N)=O)C(=O)N[C@@H](CC(=O)O)C(=O)N[C@@H]1C(=O)NCC(=O)N[C@@H](CCCN)C(=O)N[C@@H](CC(=O)O)C(=O)N[C@H](C)C(=O)N[C@@H](CC(=O)O)C(=O)NCC(=O)N[C@H](CO)C(=O)N[C@@H]([C@H](C)CC(=O)O)C(=O)N[C@@H](CC(=O)c2ccccc2N)C(=O)O[C@@H]1C` [DAP, daptomycin]: the MIC was 3 µg/mL (≈ 1.85 µM) in assay [2] (setting [13]); 3 µg/mL in [3]; 0.38 µg/mL in [4]; 8 µg/mL in assay [5]; 6 µg/mL in assay [6]; 0.38 µg/mL in [7]. Moreover, the MIC worked out at 12 µg/mL in assay [8], 0.38 µg/mL in assay [9] and 0.38 µg/mL in assay [10]. In addition, in assay [11] (BHT-B-resistant mutants obtained, antibiotic strips), the “DAP MIC of the BHT-B-resistant mutants” value was not above 8 µg/mL. Moreover, the “Fold increase in sensitivity relative to WT” value in assay [12] (both deletion strains MUT_140 and MUT_141) stood at 48 fold.
For the compound `NC[C@H]1O[C@H](O[C@H]2[C@H](O)[C@@H](O[C@H]3O[C@H](CO)[C@@H](O)[C@H](N)[C@H]3O)[C@H](N)C[C@@H]2N)[C@H](O)[C@@H](O)[C@@H]1O` [KAN, kanamycin], the MIC in assay [2] (setting [13]) is 32 µg/mL (≈ 66 µM); in [3], 64 µg/mL; in assay [4] it was 32 µg/mL; in [5], 128 µg/mL; in assay [6] it was 64 µg/mL; in assay [7], 32 µg/mL. Besides, the MIC in assay [8] was found to be 128 µg/mL; in [9], 32 µg/mL; in assay [10] it was 32 µg/mL. Moreover, the “Effect of the deletions on sensitivity (in words)” value in assay [12] is “unaffected”.

The values above are taken from publication PMC10269926, “The LiaFSR-LiaX System Mediates Resistance of Enterococcus faecium to Peptide Antibiotics and to Aureocin A53- and Enterocin L50-Like Bacteriocins” (Microbiology Spectrum, 2023).
